According to patent US6291247A, “Methods of screening for factors that disrupt neurotrophin conformation and reduce neurotrophin biological activity” (priority 1996, dated 2001):
“Also recorded” adds a separate entry of the source. Bridges are numbered along the chain shown (N, C = ends).

Legend:
p75^NTR = experiment: 125I-NT-3 binding to p75NTR; conditions: 100 μM Zn2+, n = 3; 120 min
Experimental: Full length (1-118) mouse NGF purified by HPLC from 2.5S NGF (purity greater than 95%) was obtained from Cedarlane Laboratories (Toronto, Ont). The iodination of NGF was performed as previously described (Sutter, A, Riopelle, R. J., Harris-Warrick, R. M. & Shooter, E. M. Nerve growth factor receptors. J. Biol. Chem. 254, 5972-5982 (1979)). […] PC12 cells were grown in RPMI with 10% heat inactivated donor horse serum and 5% fetal calf serum. Each data point was set up in a single tube containing ^125 I-NGF (at the required concentration), 400,000 cells (for a final call concentration of 10^6 /ml), BDNF (at 40 nM for TrkA binding) and NGF (at 10 nM for non-specific binding) as required. The tubes were incubated for 2 hr at 4° C. and 100 μl aliquots (providing triplicate data points for each sample) were transferred to 400 μl microcentrifuges containing 200 μl of 10% glycerol in HKR. Tubes were centrifuged for 2 minutes at 5,000 rpm, the tip containing the cell pellet cut off and radioactivity bound to the cells was determined.
(§1) Human recombinant BDNF and human recombinant NT-3 were obtained from Alomone Laboratories (Israel). The iodination, crosslinking, and binding experiments using BDNF and NT-3 were performed using the methods described above for NGF. Neurite outgrowth assays were performed as described in the presence of 4.0 nM NT-3 or 8.0 nM BDNF.

TrkA = system: T1, TrkA; experiment: Binding of 125I-NGF to TrkA on PC12 cells (p75NTR blocked with BDNF); set-up: species or system rat; conditions: 100 μM; in presence of 40 nM BDNF; ± SEM; 120 min
T1 construct: Receptor cross-linking studies were performed on PC12 rat pheochromocytoma cells; endogenous in cells; host or cells: PC12 rat pheochromocytoma cells (ATCC CRL 1721)
Experimental: (§2) PC12 cells were grown in RPMI with 10% heat inactivated donor horse serum and 5% fetal calf serum. […] The tubes were incubated for 2 hr at 4° C. and 100 μl aliquots (providing triplicate data points for each sample) were transferred to 400 μl microcentrifuges containing 200 μl of 10% glycerol in HKR. Tubes were centrifuged for 2 minutes at 5,000 rpm, the tip containing the cell pellet cut off and radioactivity bound to the cells was determined.

DRG neurons [1] = experiment: NGF-mediated neurite outgrowth of DRG neurons, metal ions; format: cell-based, chick; conditions: 50 and 100 μM
Experimental: (§3) Dissosiated cells enriched for sensory neurons were prepared from ED8 chick DRG as described (Dostaler, S. M. et al. Characterization of a distinctive motif of the low molecular weight neurotrophin receptor that modulates NGF-mediated neurite growth. Eur. J. Neurosci. 8, 870-879 (1996)). Neurons were seeded at a density of 800-1000 cells/well in Ham's F-12 containing 5% FCS and NGF at 10 pM into wells of Terasaki plates treated with polyysine. The cells were incubated with the indicated additives at 37° C. in a 5% CO2 atmosphere. The cells on the entire lower horizontal surface of the well were scored for neurite growth at 18-20 hours using an inverted microscope fitted with phase contrast optics. A neurite was scored if its caliber from the origin to terminal was constant and its length was equal to or greater than 1.5 cell body diameters. Neurite growth was corrected for background (no NGF).

DRG neurons [2] = experiment: NT-3-dependent neurite outgrowth of DRG neurons; format: cell-based, chick; conditions: n = 8
Experimental: as §3, §1

NGF dimer = NGF dimer stability by non-reducing gel electrophoresis; set-up: species or system mouse
Experimental: For conformation and dimer integrity studies, 0.1 nM ^125 I-NGF was incubated in the presence or absence of Zn^2+ in HKR buffer for 2 hours at 4° C. in a total volume of 0.1 ml. For crosslinking NGF […], 0.4 mM BS^3 was added to the mixture and incubated for 30 minutes at 25° C. The reaction was quenched with reducing SDS PAGE sample buffer, electrophoresed using a linear 15% acrylamide gel and autoradiographed. To assess the dimeric nature of NGF in the presence of Zn^2+, ^125 I-NGF was electrophoresed in a non-reducing SDS PAGE system as described, autoradiographed, and the labelled proteins excised from the gels and counted. For CD studies, NGF (50 μg/ml) was dissolved in 50 mM Tris-HCl buffer and spectra recorded using a computer controlled Jasco J-600 spectropolarimeter. Samples were acquired in the absence or presence of Zn^2+ (100 μM) at 22° C. in a 2 mm quartz cell averaged over eight scans. Modification of His residues by DEPC was carried out as previously described, where the molar excess of DEPC added and the extent of reaction was determined by evaluating the loss of binding activity of the modified product.

p75^NTR and TrkA [3] = system: T2, p75^NTR and TrkA; experiment: Binding of 125I-NGF to PC12 cells (p75NTR + TrkA); set-up: species or system rat; conditions: 100 μM; CaEDTA together with Zn2+
T2 construct: these cells express both NGF receptor types; endogenous in cells; host or cells: PC12 rat pheochromocytoma cells
Experimental: as §2
T2 sequence (P01139 122-239): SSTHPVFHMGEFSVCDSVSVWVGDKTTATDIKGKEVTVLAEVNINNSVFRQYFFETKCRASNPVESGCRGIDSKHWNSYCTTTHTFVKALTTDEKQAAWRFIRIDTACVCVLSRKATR

p75^NTR and TrkA [4] = experiment: Binding of 125I-NGF to PC12 cells (p75NTR + TrkA); set-up: species or system rat; conditions: above 100 μM
Experimental: as §2

p75^NTR and TrkA [5] = molecular target: T3, p75^NTR and TrkA (Mus musculus, UniProt P01139); experiment: Binding of 125I-NGF to PC12 cells (p75NTR + TrkA); set-up: species or system rat; conditions: 120 min; for steady-state specific binding of 125I-NGF (0.5 nM) to p75NTR and TrkA: ± SEM
T3 construct: these cells express both NGF receptor types; endogenous in cells; host or cells: PC12 rat pheochromocytoma cells
Experimental: as §2

DRG neurons [6] = experiment: BDNF-dependent neurite outgrowth of DRG neurons; format: cell-based, chick; conditions: n = 8
Experimental: as §3, §1

NT-3 = conditions: Rashid et al. 1995; cited from earlier work
BDNF = conditions: Rashid et al. 1995; cited from earlier work
TrkA receptor = experiment: Inhibition of TrkA phosphorylation by R11 in PC12 cells (Example 3); format: cell-based, rat
Experimental: Referring to FIG. 7C, the ability of R11 to influence TrkA phosphorylation was determined by incubating 10^7 PC12 cells (prepared as described above) in one mL HKR buffer with 50 ng NGF and the indicated concentrations of peptides for 15 min at 37° C. The cells were isolated by centrifugation, solubilized in lysis buffer and the TrkA receptor isolated as described above. The TrkA immunoprecipitated was dissociated in SDS reducing sample buffer and electrophoresed using a 6% polyacrylamide gel. The gel was then transferred to PVDF membrane (BioRad), probed with horseradish peroxidase-conjugated anti phosphotyrosine (RC20; Transduction) and developed using ECL (Amersham). All procedures were carried out according to the manufacturers' instructions.

T3 sequence (P01139 122-239): as above
T1 sequence (P01139 122-239): as above

Molecule	% Maximum p75NTR binding, 125I-NT-3 (p75^NTR)	steady-state specific binding of 125I-NGF (0.5 nM) to TrkA (TrkA)	NGF-induced neurite extension (DRG neurons [1])	Neurite Outgrowth, NT-3 (4.0 nM) (DRG neurons [2]; 30 μM Zn2+)	Neurite Outgrowth, NT-3 (4.0 nM) (DRG neurons [2]; 50 μM Zn2+)	Percentage of NGF migrating as a dimer in non-reducing gel electrophoresis (NGF dimer)	Inhibition of 125I-NGF binding (p75^NTR and TrkA [3])	Non-specific binding of 125I-NGF (p75^NTR and TrkA [4])	steady-state specific binding of 125I-NGF (0.5 nM) to p75NTR and TrkA (p75^NTR and TrkA [5]; 10 μM)	steady-state specific binding of 125I-NGF (0.5 nM) to p75NTR and TrkA (p75^NTR and TrkA [5]; 30 μM)	steady-state specific binding of 125I-NGF (0.5 nM) to p75NTR and TrkA (p75^NTR and TrkA [5]; 50 μM)	Total Binding to PC12 cells (p75^NTR and TrkA [5]; 100 μM, 125I-NGF)	steady-state specific binding of 125I-NGF (0.5 nM) to p75NTR and TrkA (p75^NTR and TrkA [5]; 100 μM)	Neurite Outgrowth, BDNF (8.0 nM) (DRG neurons [6]; 30 μM Zn2+)	Neurite Outgrowth, BDNF (8.0 nM) (DRG neurons [6]; 50 μM Zn2+)	Antagonism of NT-3 in vitro (NT-3)	Antagonism of BDNF in vitro (BDNF)	NGF-induced TrkA phosphorylation (TrkA receptor; 200 μM, 50 ng NGF, 15 min at 37° C., PC12)	Basal TrkA phosphorylation (TrkA receptor; no NGF)
[Zn+2] [Zn^2+]	13.3 ± 9.5 % Maximum binding	19 ± 15 % Control	inhibited neurite extension	79.9 ± 13.8 % Maximum process bearing neur	18.4 ± 9.6 % Maximum process bearing neur	No change	effectively blocked binding	altered non-specific binding	88 ± 13 % Control	82 ± 10 % Control	44 ± 13 % Control	21 ± 5 % control	19 ± 9 % Control	30.0 ± 13.3 % Maximum process bearing neur	1.4 ± 1.4 % Maximum process bearing neur				
NH2 -Cys-Gly-Ser-Glu-Val-Pro-Asn-Ser-Ala-Arg-Cys-Cys-Val-Cys-OH (H-CGSEVPNSARCCVC-OH; disulfide 1-14, 11-12) [R11, bicyclic peptide of NGF residues 68-58/108-110, two disulfide bonds]																effective antagonist	effective antagonist	abolished; also recorded: blocked	no influence
